Results: patent publication US7449571B2, “Halogenated aminoquinolines and oligonucleotides containing the same” (Board of Regents of the University of Nebraska, priority 2005, dated 2008)
Where two headings read alike, the source gives them in different places.

Key:
[1] = Li et al. 2003, Li et al. 2004; cited from earlier work

Structure (SMILES): Nc1nc([C@H]2C[C@H](O)[C@@H](CO)O2)c2ccccc2n1 [antiAT, 2-amino-4-(2′-deoxy-β-D-ribofuranosyl)quinazoline]
- pKa [1]: 4.8

Structure (SMILES): Nc1cc([C@H]2C[C@H](O)[C@@H](CO)O2)c2cc(F)ccc2n1 [antiAT-F, 2-amino-6-fluoro-4-(2′-deoxy-β-D-ribofuranosyl)-quinoline]
- pKa (NaOAc buffer, pH 4.602-8.322, UV absorbance at 235 nm or fluorescence emission vs pH): 6.7
- fraction of antiAT-F protonated (pH 8.0): approximately 2%

Structure (SMILES): Nc1cc([C@H]2C[C@H](O)[C@@H](CO)O2)c2ccccc2n1 [antiGC, 2-amino-4-(2′-deoxy-β-D-ribofuranosyl) quinoline]
- pKa [1]: 7.2
